The values that follow come from patent US8871753B2, “Macrocyclic compounds and their use as kinase inhibitors” (Incyte Corporation, priority 2008, dated 2014).

What all share (type): biochemical
In experiment [1] the target is T1, human JAK1 (a.a. 837-1142) (Homo sapiens, UniProt P23458).
T1 construct: human JAK1 (a.a. 837-1142); His tag (N); made in house; host or cells: insect cells (baculovirus)
In words: In vitro JAK kinase assay (HTRF, phosphorylation of a biotinylated peptide), JAK1. To be noted: read-out: JAK1 IC50. The method, boiled down: (§1)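 Kinase reactions ran at room temperature for 1 h with ATP matched per isoform (JAK1 90 μM, JAK2 30 μM, JAK3 3 μM). After an EDTA stop, the phosphorylated biotin-peptide was read by HTRF using Eu-Py20 and SA-APC after 40 min binding.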

For experiment [2], the target named is T2, human JAK2 (a.a. 828-1132) (Homo sapiens, UniProt O60674).
T2 construct: JAK2 (a.a. 828-1132); His tag (N); made in house; host or cells: insect cells (baculovirus)
T2 sequence (O60674 828-1132): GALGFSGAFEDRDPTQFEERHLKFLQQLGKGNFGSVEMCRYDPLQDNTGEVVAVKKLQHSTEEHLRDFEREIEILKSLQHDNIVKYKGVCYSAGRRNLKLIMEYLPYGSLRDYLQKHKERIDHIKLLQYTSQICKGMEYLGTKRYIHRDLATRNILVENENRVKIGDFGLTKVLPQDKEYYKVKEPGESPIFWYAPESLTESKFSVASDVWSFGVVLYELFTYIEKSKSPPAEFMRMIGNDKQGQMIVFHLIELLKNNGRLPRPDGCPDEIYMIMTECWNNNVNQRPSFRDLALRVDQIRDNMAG
Description: In vitro JAK kinase assay (HTRF, phosphorylation of a biotinylated peptide), JAK2. The method, boiled down:
as §1
For orientation: TR-FRET usually uses a lanthanide donor and a delayed reading to cut background.

For experiment [3], the target named is T3, human JAK3 (a.a. 781-1124) (Homo sapiens, UniProt P52333).
T3 construct: JAK3 (a.a. 781-1124); His tag (N); made in house; host or cells: insect cells (baculovirus)
T3 sequence (P52333 781-1124): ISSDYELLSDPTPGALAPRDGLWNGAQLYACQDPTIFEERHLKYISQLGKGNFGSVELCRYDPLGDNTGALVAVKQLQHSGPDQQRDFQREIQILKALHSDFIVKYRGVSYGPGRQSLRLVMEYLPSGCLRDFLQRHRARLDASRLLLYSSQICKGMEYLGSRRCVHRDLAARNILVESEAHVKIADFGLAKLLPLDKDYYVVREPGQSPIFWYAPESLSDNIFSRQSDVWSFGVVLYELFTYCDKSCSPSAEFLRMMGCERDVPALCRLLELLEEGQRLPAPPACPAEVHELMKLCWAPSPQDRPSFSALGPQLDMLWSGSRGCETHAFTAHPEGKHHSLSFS
Description: In vitro JAK kinase assay (HTRF, phosphorylation of a biotinylated peptide), JAK3. In outline: as §1

Experiment [4] deals with TYK2 (Homo sapiens, UniProt P29597). In words: TYK2 kinase inhibition (Table A1).
Chain of TYK2 (P29597 whole entry): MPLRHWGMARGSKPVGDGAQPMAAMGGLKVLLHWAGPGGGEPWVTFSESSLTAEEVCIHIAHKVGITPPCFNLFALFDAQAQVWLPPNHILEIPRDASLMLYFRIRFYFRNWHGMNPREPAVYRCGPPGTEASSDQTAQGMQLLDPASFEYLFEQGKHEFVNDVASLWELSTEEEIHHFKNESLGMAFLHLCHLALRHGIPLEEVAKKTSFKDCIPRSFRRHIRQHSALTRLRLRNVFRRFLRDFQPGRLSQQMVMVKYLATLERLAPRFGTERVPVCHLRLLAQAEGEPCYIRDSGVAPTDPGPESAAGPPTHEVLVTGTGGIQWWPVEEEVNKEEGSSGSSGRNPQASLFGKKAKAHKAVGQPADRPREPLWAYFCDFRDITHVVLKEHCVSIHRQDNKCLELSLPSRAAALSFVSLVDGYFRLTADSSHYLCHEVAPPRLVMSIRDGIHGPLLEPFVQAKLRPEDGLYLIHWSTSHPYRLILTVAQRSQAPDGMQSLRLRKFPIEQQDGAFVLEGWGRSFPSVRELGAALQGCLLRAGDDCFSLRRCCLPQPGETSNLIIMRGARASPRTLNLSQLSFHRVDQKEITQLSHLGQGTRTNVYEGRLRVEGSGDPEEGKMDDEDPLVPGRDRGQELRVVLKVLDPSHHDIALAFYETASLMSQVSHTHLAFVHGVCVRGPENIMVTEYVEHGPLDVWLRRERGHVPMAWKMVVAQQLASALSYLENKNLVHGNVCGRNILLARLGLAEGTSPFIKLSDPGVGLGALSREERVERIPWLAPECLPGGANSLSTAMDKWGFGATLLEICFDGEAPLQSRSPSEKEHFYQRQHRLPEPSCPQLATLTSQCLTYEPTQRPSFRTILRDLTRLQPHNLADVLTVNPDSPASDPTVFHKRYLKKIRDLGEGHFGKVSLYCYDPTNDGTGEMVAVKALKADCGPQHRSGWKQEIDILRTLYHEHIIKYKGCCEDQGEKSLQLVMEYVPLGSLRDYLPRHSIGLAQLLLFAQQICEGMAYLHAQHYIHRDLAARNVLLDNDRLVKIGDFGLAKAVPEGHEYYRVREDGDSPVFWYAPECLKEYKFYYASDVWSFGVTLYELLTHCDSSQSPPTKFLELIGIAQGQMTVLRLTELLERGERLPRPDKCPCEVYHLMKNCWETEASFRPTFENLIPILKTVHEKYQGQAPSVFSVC
Experiment [5] deals with T4, Recombinant Human Anaplastic Lymphoma Kinase (Homo sapiens, UniProt Q9UM73).
T4 construct: purchased Invitrogen, Carlsbad, Calif
T4 sequence (Q9UM73 19-1620): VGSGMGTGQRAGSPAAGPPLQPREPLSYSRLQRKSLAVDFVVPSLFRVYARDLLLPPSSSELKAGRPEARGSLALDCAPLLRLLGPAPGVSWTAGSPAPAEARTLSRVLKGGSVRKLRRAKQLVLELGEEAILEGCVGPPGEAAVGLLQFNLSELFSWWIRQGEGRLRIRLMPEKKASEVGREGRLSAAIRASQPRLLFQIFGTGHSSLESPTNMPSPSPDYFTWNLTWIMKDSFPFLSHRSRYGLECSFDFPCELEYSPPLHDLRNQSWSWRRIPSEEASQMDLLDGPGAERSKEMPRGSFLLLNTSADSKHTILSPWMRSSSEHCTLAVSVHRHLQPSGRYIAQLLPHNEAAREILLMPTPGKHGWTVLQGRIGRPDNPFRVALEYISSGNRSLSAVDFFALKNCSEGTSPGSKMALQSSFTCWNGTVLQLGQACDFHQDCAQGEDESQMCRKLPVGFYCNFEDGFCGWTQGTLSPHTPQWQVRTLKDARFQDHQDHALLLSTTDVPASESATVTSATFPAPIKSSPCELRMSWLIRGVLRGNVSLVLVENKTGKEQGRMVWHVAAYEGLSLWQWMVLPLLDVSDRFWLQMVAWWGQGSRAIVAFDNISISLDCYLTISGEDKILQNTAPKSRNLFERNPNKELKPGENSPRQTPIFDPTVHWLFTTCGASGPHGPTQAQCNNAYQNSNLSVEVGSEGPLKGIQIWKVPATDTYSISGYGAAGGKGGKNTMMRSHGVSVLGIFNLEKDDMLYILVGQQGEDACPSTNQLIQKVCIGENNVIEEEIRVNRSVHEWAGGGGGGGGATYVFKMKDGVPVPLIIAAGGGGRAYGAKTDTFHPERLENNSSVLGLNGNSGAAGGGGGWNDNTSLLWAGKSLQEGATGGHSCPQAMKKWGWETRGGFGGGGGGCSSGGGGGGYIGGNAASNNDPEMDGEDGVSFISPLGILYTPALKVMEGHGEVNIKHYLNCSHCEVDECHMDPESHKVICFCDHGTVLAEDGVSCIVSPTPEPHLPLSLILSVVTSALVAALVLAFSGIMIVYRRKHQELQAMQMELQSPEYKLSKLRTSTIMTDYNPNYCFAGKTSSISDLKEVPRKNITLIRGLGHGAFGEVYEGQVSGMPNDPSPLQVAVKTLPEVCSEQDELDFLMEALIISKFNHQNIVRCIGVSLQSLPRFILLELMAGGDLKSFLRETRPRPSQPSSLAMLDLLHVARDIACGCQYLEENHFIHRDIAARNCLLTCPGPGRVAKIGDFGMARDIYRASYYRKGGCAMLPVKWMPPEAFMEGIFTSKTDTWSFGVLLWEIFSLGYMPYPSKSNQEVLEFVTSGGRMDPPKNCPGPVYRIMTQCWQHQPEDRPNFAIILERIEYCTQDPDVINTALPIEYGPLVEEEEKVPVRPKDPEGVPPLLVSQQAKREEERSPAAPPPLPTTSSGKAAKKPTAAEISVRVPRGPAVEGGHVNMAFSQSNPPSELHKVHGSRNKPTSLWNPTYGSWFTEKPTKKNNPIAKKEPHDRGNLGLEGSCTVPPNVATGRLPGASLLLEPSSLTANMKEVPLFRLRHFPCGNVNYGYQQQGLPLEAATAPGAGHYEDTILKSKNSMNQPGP
Description: ALK HTRF kinase assay. The source says: Materials: Recombinant Human Anaplastic Lymphoma Kinase was purchased from Invitrogen, Carlsbad, Calif. Peptide substrate (Biotin-[…]-amide) was custom synthesized at EZBiolab, Westfield, Ind. Streptavidin conjugated SureLight-Allophycocyania and LANCE Eu-W1024 labeled anti-phosphotyrosine antibody were from Perkin-Elmer, Boston, Mass. Microplates were from Corning Inc., Acton, Mass. All other reagents were from Sigma, St. Louis, Mo.
Plates were read in Fusion α-FP instrument (Perkin-Elmer). […] Signal=Bottom+(Top−Bottom)/(1+10^((Log(IC50)−Log [I])*Hill Slope) Bottom and Top refer to the post and pre-transition baselines, respectively.

Setting [6] is: method AA1 (90 μM ATP) or AA2 (1000 μM ATP), not stated per value.
The mark [7] stands for this setting: method AA1 (30 μM ATP) or AA2 (1000 μM ATP), not stated per value.
Where [8] appears, read: method AA1 (3 μM ATP) or AA2 (1000 μM ATP), not stated per value.
Setting [9] is: compound at 500 nM or 1 mM, 90 μM ATP.

Structures are written as SMILES. Structures can show the parent of a compound that is named as a salt. Where two headings read alike, the source gives them in different places.

The term IC50 denotes the midpoint of a concentration-inhibition curve.

T1 sequence (P23458 849-1154): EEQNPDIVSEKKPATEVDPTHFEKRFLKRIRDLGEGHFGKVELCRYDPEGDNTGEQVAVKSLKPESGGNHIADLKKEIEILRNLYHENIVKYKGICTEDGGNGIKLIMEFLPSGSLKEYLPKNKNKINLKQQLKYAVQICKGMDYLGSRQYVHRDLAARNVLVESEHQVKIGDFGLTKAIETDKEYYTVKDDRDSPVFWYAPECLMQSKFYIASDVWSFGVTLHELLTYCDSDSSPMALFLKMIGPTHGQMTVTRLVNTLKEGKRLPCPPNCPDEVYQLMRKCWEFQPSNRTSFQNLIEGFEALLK

On to `NC(=O)COc1ccc2cc1CCc1cccc(c1)Nc1ncc(Cl)c(n1)N2` [Example A15, 2-{[6-Chloro-2,4,8,22-tetraazatetracyclo[14.3.1.1(3,7).1(9,13)]docosa-1(20),3(22),4,6,9(21),10,12,16,18-nonaen-12-yl]oxy}acetamide trifluoroacetate], for which the IC50 in experiment [1] (setting [6]) came to 2.9 nM; in experiment [2] (setting [7]) it was 1.1 nM; in experiment [3] (setting [8]) it was 4.8 nM; in experiment [4], 3.4 nM. The “ALK % of inhibition at a concentration of 500 nM or 1 mM” value (“ALK % of inhibition” for short) in experiment [5] (setting [9]) is listed as 79%.

For the molecule `O=C(CCC1CCNCC1)Nc1ccc2cc1CCc1cncc(c1)Nc1ncc(Cl)c(n1)N2` [Example A117, N-[6-Chloro-2,4,8,18,22-pentaaazatetracyclo[14.3.1.1(3,7).1(9,13)]docosa-1(20),3(22),4,6,9(21),10,12,16,18-nonaen-12-yl]-3piperidin-4-ylpropanamide tris(trifluoroacetate)], the IC50 in experiment [1] (setting [6]) turned out to be 10 nM; in experiment [2] (setting [7]), 29 nM; in experiment [3] (setting [8]) it was 160 nM; in experiment [4], 44 nM. The “ALK % of inhibition” value in experiment [5] (setting [9]) is 25%.

For the molecule `C[C@H](O)C(=O)Nc1ccc2cc1CCc1cccc(c1)Nc1ncc(Cl)c(n1)N2` [Example A106, (2S)—N-[6-Chloro-2,4,8,22-tetraazatetracyclo[14.3.1.1(3,7).1(9,13)]docosa-1(20),3(22),4,6,9(21),10,12,16,18-nonaen-12-yl]-2-hydroxypropanamide trifluoroacetate], the half-maximal inhibitory concentration (IC50) is 18 nM in experiment [1] (setting [6]), 10 nM in experiment [2] (setting [7]), 6.2 nM in experiment [3] (setting [8]) and 22 nM in experiment [4]. The “ALK % of inhibition” value in experiment [5] (setting [9]) came out at 21%.

`O=C(Nc1ccc2cc1CCc1cccc(c1)Nc1ncc(Cl)c(n1)N2)C1CCCN(C(=O)Nc2ccccc2)C1` (stereo not shown) [Example A50, N(3)-[6-Chloro-2,4,8,22-tetraazatetracyclo[14.3.1.1(3,7).1(9,13)]docosa-1(20),3(22),4,6,9(21),10,12,16,18-nonaen-12-yl]-N(1)-phenylpiperidine-1,3-dicarboxamide trifluoroacetate]: the concentration for half-maximal inhibition (IC50) worked out at 2.4 nM in experiment [1] (setting [6]), 6.5 nM in experiment [2] (setting [7]), 13 nM in experiment [3] (setting [8]) and 21 nM in experiment [4]. In addition, the “ALK % of inhibition” value in experiment [5] (setting [9]) came out at 37%.

As for `O=S1(=O)Cc2cccc(c2)Nc2ncc(Cl)c(n2)Nc2cccc(c2)N1` [Example C9, 6-Chloro-15-thia-2,4,8,14,23-pentaazatetracyclo[15.3.1.1(3,7).1(9,13)]tricosa-1(21),3(23),4,6,9(22),10,12,17,19-nonaene 15,15-dioxide trifluoroacetate], the IC50 in experiment [1] was 144 nM; in experiment [2], 93 nM; in experiment [3], 412 nM; in experiment [4] it was 353 nM; in experiment [5], more than 1000 nM.

On to `COc1cccc(NC(=O)N2CCC(C(=O)Nc3ccc4cc3CCc3cccc(c3)Nc3ncc(Cl)c(n3)N4)CC2)c1` [Example A38, N(4)-[6-Chloro-2,4,8,22-tetraazatetracyclo[14.3.1.1(3,7).1(9,13)]docosa-1(20),3(22),4,6,9(21),10,12,16,18-nonaen-12-yl]-N(1)-(3-methoxyphenyl)piperidine-1,4-dicarboxamide trifluoroacetate], for which the concentration for half-maximal inhibition (IC50) in experiment [1] (setting [6]) is 6.6 nM; in experiment [2] (setting [7]) it was 16 nM; in experiment [3] (setting [8]) it was 46 nM; in experiment [4] it was 48 nM. The “ALK % of inhibition” value in experiment [5] (setting [9]) is listed as 55%.

`O=C(COc1ccc2cc1CCc1cncc(c1)Nc1ncc(Cl)c(n1)N2)N1CCn2c(nnc2C(F)(F)F)C1` [Example A249, 6-Chloro-12-{2-oxo-2-[3-(trifluoromethyl)-5,6-dihydro[1,2,4]triazolo[4,3-a]pyrazin-7(8H)-yl]ethoxy}-2,4,8,18,22pentaazatetracyclo[14.3.1.1(3,7).1(9,13)]docosa1(20),3(22),4,6,9(21),10,12,16,18-nonaene bis(trifluoroacetate)]: the IC50 is 226 nM in experiment [1] (setting [6]), more than 400 nM in experiment [2] (setting [7]), more than 400 nM in experiment [3] (setting [8]) and more than 400 nM in experiment [4]. In experiment [5] (setting [9]), the “ALK % of inhibition” value amounted to 28%.

With `O=C(Nc1ccc2cc1CCc1cccc(c1)Nc1ncc(Cl)c(n1)N2)c1ccc(C(F)(F)F)cc1` [Example B75, N-[6-Chloro-2,4,8,22-tetraazatetracyclo[14.3.1.1(3,7).1(9,13)]docosa-1(20), 3(22),4,6,9(21),10,12,16,18-nonaen-12-yl]-4-(trifluoromethyl)benzamide trifluoroacetate], the half-inhibitory concentration (IC50) in experiment [1] (Table B1) was 4.7 nM; in experiment [2] (Table B1), 30 nM; in experiment [3] (Table B1), 80 nM; in experiment [4] (Table B1), 30 nM. In addition, the “ALK % of inhibition” value in experiment [5] (compound at a concentration of 500 nM or 1 mM (not specified), cells shown as percentage) stood at 17%.

In the case of `COc1cccc(S(=O)(=O)N2CCC(CC(=O)Nc3ccc4cc3CCc3cccc(c3)Nc3ncc(Cl)c(n3)N4)CC2)c1` [Example A206, N-[6-Chloro-2,4,8,22-tetraazatetracyclo[14.3.1.1(3,7).1(9,13)]docosa-1(20),3(22),4,6,9(21),10,12,16,18-nonaen-12-yl]-2-{1-[(3-methoxyphenyl)sulfonyl]piperidin-4-yl}acetamide trifluoroacetate], the IC50 in experiment [2] (setting [7]), in experiment [3] (setting [8]) and in experiment [4] was more than 200 nM throughout. Also, the “ALK % of inhibition” value in experiment [5] (setting [9]) is recorded as 15%.

In the case of `N#Cc1ccc(C(=O)N2CCC(CC(=O)Nc3ccc4cc3CCc3cncc(c3)Nc3ncc(Cl)c(n3)N4)CC2)cc1` [Example A190, N-[6-Chloro-2,4,8,18,22-pentaazatetracyclo[14.3.1.1(3,7).1(9,13)]docosa-1(20),3(22),4,6,9(21),10,12,16,18-nonaen-12-yl]-2-[1-(4-cyanobenzoyl)piperidin-4-yl]acetamide bis(trifluoroacetate)], the IC50 in experiment [2] (setting [7]), in experiment [3] (setting [8]) and in experiment [4] was more than 200 nM each time. Moreover, in experiment [5] (setting [9]), the “ALK % of inhibition” value is given as 27%.

For the molecule `[O-][S+]1CCc2cccc(c2)Nc2ncc(Cl)c(n2)Nc2cccc1c2` (stereo not shown) [Example D23, 6-Chloro-14-thia-2,4,8,23-tetraazatetracyclo[15.3.1.1(3,7).1(9,13)]tricosa-1(21),3(23),4,6,9(22),10,12,17,19-nonaene 14-oxide trifluoroacetate], the IC50 in experiment [2] (Table D1) was found to be 4.9 nM; in experiment [3] (Table D1), 21 nM; in experiment [4] (Table D1), 23 nM; in experiment [5] (Table D1, 90 μM ATP), 1210 nM.

With `O=C(Nc1ccc2cc1CCc1cncc(c1)Nc1ncc(Cl)c(n1)N2)N1CCN(c2ncc(C(F)(F)F)cc2Cl)CC1` [Example B302, N-[6-Chloro-2,4,8,18,22-pentaazatetracyclo[14.3.1.1(3,7).1(9,13)]docosa-1(20),3(22),4,6,9(21),10,12,16,18-nonaen-12-yl]-4-[3-chloro-5-(trifluoromethyl)pyridin-2-yl]piperazine-1-carboxamide tris(trifluoroacetate)], the 50% inhibitory concentration (IC50) is 119 nM in experiment [1] (Table B1), more than 400 nM in experiment [2] (Table B1) and more than 400 nM in experiment [3] (Table B1). Also, the “ALK % of inhibition” value in experiment [5] (percentage inhibition of the example compound at a concentration of 500 nM or 1 mM (not specified which)) was 69%.

With `Clc1cnc2nc1Nc1cccc(c1)NCc1cccc(c1)N2` [Example D16, 6-Chloro-2,4,8,14,22-pentaazatetracyclo[14.3.1.1(3,7).1(9,13)]docosa-1(20),3(22),4,6,9(21),10,12,16,18-nonaene bis(trifluoroacetate)], the IC50 in experiment [1] (Table D1) is 144 nM; in experiment [2] (Table D1) it was 113 nM; in experiment [3] (Table D1) it was 325 nM; in experiment [5] (Table D1, 90 μM ATP), more than 10000 nM.

Consider `Cc1ccccc1S(=O)(=O)Nc1ccc2cc1CCc1cccc(c1)Nc1ncc(Cl)c(n1)N2` [Example B149, N-[6-Chloro-2,4,8,22-tetraazatetracyclo[14.3.1.1(3,7).1(9,13)]docosa-1(20), 3(22),4,6,9(21),10,12,16,18-nonaen-12-yl]-2-methylbenzenesulfonamide trifluoroacetate], for which the half-maximal inhibitory concentration (IC50) in experiment [1] (Table B1) came to 0.15 nM; in experiment [3] (Table B1), 2.4 nM; in experiment [4] (Table B1) it was 0.51 nM; in experiment [5] (Table B1, cells without percent sign) it was 350 nM.
